Measured values: paper PMC6044785 (ACS Omega, 2017)
Read-outs that look alike come from different tables or passages of the source. Square brackets hold non-standard residues; d marks the D form. Peptide text beside a SMILES is read from it. Gly(But-3-enyl) = C=CCC[C@H](N)C(=O)O; Aib = CC(C)(N)C(=O)O

Columns and labels:
[1] = system: K562; details: read-out: GI50 (μM) K562; Table 3; ref [22]; cited from earlier work
[2] = molecular target: HDAC1 (Homo sapiens, UniProt Q13547); experiment: HDAC1 enzymatic inhibition assay; format: biochemical
Chain of HDAC1 (Q13547 whole entry): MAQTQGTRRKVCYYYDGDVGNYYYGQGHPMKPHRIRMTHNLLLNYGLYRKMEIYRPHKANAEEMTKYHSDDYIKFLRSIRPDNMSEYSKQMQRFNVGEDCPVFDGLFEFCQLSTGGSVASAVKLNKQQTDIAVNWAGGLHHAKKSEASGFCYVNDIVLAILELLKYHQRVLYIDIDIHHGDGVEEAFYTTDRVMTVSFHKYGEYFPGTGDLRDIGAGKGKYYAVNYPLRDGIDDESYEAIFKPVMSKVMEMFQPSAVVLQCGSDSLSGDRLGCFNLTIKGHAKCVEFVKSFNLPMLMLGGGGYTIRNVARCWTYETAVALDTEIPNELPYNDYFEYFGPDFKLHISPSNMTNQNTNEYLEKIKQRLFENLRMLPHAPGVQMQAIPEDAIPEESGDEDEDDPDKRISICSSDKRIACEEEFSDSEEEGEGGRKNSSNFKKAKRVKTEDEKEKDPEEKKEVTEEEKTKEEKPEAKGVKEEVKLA

[3] = molecular target: HDAC4 (Homo sapiens, UniProt P56524); experiment: HDAC4 enzymatic inhibition assay; format: biochemical
Chain of HDAC4 (P56524 whole entry): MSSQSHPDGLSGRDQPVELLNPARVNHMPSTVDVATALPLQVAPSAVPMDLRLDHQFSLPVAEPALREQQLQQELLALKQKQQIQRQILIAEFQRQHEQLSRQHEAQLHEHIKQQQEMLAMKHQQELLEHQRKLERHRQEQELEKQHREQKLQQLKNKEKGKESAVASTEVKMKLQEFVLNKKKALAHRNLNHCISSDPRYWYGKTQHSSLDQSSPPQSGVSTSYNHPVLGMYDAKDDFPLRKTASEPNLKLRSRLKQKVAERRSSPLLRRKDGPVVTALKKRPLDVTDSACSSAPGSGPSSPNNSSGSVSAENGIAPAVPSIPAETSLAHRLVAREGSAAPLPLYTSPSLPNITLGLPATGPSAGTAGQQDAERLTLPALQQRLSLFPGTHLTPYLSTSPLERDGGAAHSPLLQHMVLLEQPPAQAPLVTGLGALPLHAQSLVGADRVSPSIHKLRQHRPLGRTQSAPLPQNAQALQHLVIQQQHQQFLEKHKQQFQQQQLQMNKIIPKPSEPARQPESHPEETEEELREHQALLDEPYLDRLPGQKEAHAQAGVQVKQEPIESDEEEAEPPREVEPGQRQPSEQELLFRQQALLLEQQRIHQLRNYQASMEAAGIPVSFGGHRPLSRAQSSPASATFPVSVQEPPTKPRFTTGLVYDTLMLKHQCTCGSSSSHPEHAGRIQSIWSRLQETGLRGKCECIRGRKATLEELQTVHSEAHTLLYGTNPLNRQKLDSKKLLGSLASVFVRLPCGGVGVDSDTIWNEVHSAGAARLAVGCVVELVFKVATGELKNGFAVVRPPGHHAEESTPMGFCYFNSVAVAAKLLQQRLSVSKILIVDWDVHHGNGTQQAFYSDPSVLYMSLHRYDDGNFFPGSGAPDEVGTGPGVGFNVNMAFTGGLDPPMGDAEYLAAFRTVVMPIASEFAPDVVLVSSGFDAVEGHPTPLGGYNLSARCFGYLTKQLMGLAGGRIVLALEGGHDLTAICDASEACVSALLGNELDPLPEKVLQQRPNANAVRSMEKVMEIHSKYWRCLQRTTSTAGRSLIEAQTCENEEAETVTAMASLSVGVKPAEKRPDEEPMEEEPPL

[4] = system: HEK293; experiment: Antiproliferative activity on HEK293 cells; format: cell-based, human; details: read-out: GI50 (μM) HEK293
[5] = system: HeLa nuclear extract; experiment: HDAC inhibition assay with HeLa nuclear extract; format: biochemical, human; details: read-out: IC50 (μM) HeLa nuclear extract; Table 1; mean ± SD of three independent experiments; >100 = not active (inhibition < 50% at 100 μM)
[6] = system: Jurkat; details: read-out: GI50 (μM) Jurkat; Table 3; ref [22]; cited from earlier work
[7] = system: T. gondii RH strain; details: read-out: IC50 T. gondii RH strain; ref [22]; cited from earlier work
[8] = system: HeLa; experiment: Antiproliferative activity on HeLa cells; format: cell-based, human; details: 72 h, read-out: GI50 (μM) HeLa
[9] = molecular target: T1, HDAC6 (Homo sapiens, UniProt Q9UBN7); experiment: HDAC6 enzymatic inhibition assay; format: biochemical
T1 sequence (Q9UBN7 1-1215): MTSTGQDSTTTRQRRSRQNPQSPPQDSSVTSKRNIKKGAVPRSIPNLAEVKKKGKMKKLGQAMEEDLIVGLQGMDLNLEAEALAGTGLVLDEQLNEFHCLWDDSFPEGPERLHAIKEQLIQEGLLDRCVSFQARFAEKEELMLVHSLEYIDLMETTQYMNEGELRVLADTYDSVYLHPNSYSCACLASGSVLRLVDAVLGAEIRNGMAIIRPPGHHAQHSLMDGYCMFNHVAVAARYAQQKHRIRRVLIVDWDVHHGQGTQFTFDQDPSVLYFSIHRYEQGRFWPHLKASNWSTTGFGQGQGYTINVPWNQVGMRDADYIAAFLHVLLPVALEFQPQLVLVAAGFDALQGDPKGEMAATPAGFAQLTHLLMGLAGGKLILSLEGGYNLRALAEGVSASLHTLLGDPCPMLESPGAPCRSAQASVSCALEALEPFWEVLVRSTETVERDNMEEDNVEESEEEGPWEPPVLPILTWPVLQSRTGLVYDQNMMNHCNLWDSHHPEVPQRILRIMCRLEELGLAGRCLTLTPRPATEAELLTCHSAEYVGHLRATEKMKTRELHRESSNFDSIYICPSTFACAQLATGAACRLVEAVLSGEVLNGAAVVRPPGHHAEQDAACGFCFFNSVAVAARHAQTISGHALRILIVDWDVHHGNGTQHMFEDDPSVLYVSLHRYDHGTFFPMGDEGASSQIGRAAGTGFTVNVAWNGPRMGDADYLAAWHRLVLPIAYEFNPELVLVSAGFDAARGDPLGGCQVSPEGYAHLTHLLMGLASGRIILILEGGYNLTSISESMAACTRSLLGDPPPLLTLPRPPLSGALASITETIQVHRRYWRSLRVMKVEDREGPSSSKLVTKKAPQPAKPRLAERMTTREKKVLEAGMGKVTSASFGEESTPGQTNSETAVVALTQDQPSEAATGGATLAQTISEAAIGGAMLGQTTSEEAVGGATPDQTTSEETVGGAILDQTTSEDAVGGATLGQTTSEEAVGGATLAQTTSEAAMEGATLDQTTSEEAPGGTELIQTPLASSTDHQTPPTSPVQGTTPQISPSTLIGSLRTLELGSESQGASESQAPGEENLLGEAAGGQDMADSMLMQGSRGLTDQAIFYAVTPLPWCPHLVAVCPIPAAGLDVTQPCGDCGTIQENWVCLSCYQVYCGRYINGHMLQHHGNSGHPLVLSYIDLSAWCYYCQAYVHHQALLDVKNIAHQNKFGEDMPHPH

[10] = system: P. falciparum; details: read-out: GI50 (μM) P. falciparum; Table 3; ref [22]; cited from earlier work
[11] = molecular target: T2, HDAC8 (Homo sapiens, UniProt Q9BY41); experiment: HDAC8 enzymatic inhibition assay; format: biochemical
T2 sequence (Q9BY41 1-377): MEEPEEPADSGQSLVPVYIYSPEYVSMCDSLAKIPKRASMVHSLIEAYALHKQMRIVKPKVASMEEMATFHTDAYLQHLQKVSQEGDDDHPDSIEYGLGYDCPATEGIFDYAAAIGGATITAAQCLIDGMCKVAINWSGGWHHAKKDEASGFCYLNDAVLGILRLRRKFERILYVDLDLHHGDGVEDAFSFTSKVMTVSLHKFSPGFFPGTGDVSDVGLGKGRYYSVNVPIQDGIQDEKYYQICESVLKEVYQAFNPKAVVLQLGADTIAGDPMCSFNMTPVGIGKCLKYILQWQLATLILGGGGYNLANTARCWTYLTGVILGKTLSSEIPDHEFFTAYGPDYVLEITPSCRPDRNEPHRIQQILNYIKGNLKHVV

[12] = molecular target: HDAC3/NCOR2 (Homo sapiens, UniProt O15379); experiment: HDAC3/NCOR2 enzymatic inhibition assay; format: biochemical
Chain of HDAC3/NCOR2 (O15379 whole entry): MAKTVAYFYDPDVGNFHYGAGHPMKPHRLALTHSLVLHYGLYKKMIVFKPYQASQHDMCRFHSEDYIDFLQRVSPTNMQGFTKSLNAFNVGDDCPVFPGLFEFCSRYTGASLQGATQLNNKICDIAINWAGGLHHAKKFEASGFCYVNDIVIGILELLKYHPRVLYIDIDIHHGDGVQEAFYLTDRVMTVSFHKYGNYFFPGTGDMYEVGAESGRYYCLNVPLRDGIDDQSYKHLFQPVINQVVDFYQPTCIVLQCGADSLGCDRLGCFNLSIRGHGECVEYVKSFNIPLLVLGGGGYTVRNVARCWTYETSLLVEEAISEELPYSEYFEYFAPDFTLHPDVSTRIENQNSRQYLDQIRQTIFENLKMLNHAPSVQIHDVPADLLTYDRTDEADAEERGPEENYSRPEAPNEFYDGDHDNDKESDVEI
Chain of HDAC3/NCOR2 (Q9Y618 395-489 partner limits assumed): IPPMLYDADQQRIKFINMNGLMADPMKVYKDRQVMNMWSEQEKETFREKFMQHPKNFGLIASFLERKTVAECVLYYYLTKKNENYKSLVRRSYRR

[13] = system: Jurkat; experiment: Antiproliferative activity on Jurkat cells; format: cell-based; details: Homo sapiens, read-out: GI50 (μM) Jurkat
[14] = system: K562; experiment: Antiproliferative activity on K562 cells; format: cell-based; details: Homo sapiens, K562, read-out: GI50 (μM) K562
[15] = system: P. falciparum; experiment: P. falciparum [3H]-hypoxanthine incorporation assay; format: cell-based, Plasmodium falciparum 3D7 strain; details: Plasmodium falciparum, 3D7, read-out: GI50 (μM) P. falciparum
[16] = system: normal B lymphocytes; experiment: Antiproliferative activity on normal B lymphocytes; format: cell-based; details: Homo sapiens, Lymphocyte, 72 h, read-out: GI50 normal B lymphocytes

| Structure (SMILES) | IC50 [2] [µM] | IC50 [3] [µM] | IC50 [5] [µM] | GI50 ([8]; Homo sapiens) [µM] | IC50 [9] [µM] | IC50 [11] [µM] | IC50 [12] [µM] | GI50 [13] [µM] | GI50 [14] [µM] | GI50 ([4]; Homo sapiens, HEK293, 72 h) [µM] | GI50 [15] [µM] | other results |
| --- | --- | --- | --- | --- | --- | --- | --- | --- | --- | --- | --- | --- |
| C[C@@H](O)C(=O)CCCCCCC(=O)Nc1ccccc1 [Compound 11b, (R)-9-Hydroxy-8-oxo-N-phenyldecanamide] | 7.9 ± 0.8 | > 100 | 8.9 ± 0.5 | > 50 | > 300 | > 100 | 50.2 ± 4.7 | 92 ± 1 | 62.3 ± 5.8 | 35.6 ± 1.6 | 37.9 ± 3.8 |  |
| C[C@H](O)C(=O)CCCCCCC(=O)Nc1cccc(-c2cn(-c3ccccc3)nn2)c1 [Compound 11e, (S)-9-Hydroxy-8-oxo-N-(3-(1-phenyl-1H-1,2,3-triazol-4-yl)phenyl)decanamide] | 5.04 ± 0.07 | > 100 | 0.88 ± 0.05 | 115 ± 25.3 | > 300 | > 100 | 1.97 ± 0.03 | 2.84 ± 0.7 | 7.12 ± 0.9 | 15.9 ± 1.13 | 4.85 ± 1.3 | GI50 [16]: > 50 µM |
| C[C@H](O)C(=O)CCCCCCC(=O)Nc1ccccc1 [Compound 11f, (S)-9-Hydroxy-8-oxo-N-phenyldecanamide] |  |  | 77.1 ± 6.4 |  | > 300 |  |  |  |  |  |  |  |
| CC(=O)O[C@H](C)C(=O)CCCCC[C@@H]1NC(=O)[C@H]2CCCN2C(=O)[C@H](Cc2ccccc2)NC(=O)C(C)(C)NC1=O [Compound 13] | 0.39 ± 0.02 | > 100 | 0.11 ± 0.0008 |  | > 300 | 1.87 ± 0.42 | 0.35 ± 0.003 |  |  |  |  | GI50 [1]: 0.061 ± 0.002 µM; GI50 ([4]; Table 3, 72 h, XTT): 0.006 ± 0.001 µM; GI50 [6]: 0.127 ± 0.011 µM; GI50 ([8]; Table 3, XTT): 0.119 ± 0.008 µM; GI50 [10]: 0.0221 ± 0.001 µM |

More lines, main results first:

| IC50 [2] [µM] | IC50 [3] [µM] | IC50 [5] [µM] | GI50 ([8]; Homo sapiens) [µM] | IC50 [9] [µM] | IC50 [11] [µM] | IC50 [12] [µM] | GI50 [13] [µM] | GI50 [14] [µM] | Structure (SMILES) | GI50 ([4]; Homo sapiens, HEK293, 72 h) [µM] | GI50 [15] [µM] | other results |
| --- | --- | --- | --- | --- | --- | --- | --- | --- | --- | --- | --- | --- |
| 0.96 ± 0.6 | > 100 | 0.0081 ± 0.0019 | 0.17 ± 0.01 | > 300 | 7.02 ± 1.53 | 0.33 ± 0.01 |  |  | C[C@@H](O)C(=O)CCCCC[C@@H]1NC(=O)[C@H]2CCCN2C(=O)[C@H](Cc2ccccc2)NC(=O)C(C)(C)NC1=O [Compound 3] | 0.04 ± 0.02 |  | GI50 [1]: 0.018 ± 0.002 µM; GI50 [6]: 0.048 ± 0.001 µM; IC50 [7]: 0.0286 µM; GI50 [10]: 0.0174 ± 0.002 µM |
|  |  | > 100 |  | 101 ± 2.9 |  |  |  |  | C[C@@H](O)C(=O)CCCCCC(=O)Nc1ccccc1 [Compound 11a, (R)-8-Hydroxy-7-oxo-N-phenylnonanamide] |  |  |  |
|  |  | 27.3 ± 5.9 |  | > 300 |  |  |  |  | C[C@@H](O)C(=O)CCCCCCCC(=O)Nc1ccccc1 [Compound 11c, (R)-10-Hydroxy-9-oxo-N-phenylundecanamide] |  |  |  |
|  |  | > 100 |  | > 300 |  |  |  |  | CCC(=O)CCCCCCC(=O)Nc1ccccc1 [Compound 11g, 8-Oxo-N-phenyldecanamide] |  |  |  |
|  |  | 63.8 ± 5.3 | > 50 | > 300 |  |  | ≥ 100 | ≥ 100 | CC(=O)O[C@H](C)C(=O)CCCCCCC(=O)Nc1ccccc1 [Compound 12b, (R)-3,10-Dioxo-10-(phenylamino)decan-2-yl Acetate] | 36.3 ± 1.7 | 40.1 ± 4.3 |  |
|  |  |  |  | > 300 |  |  |  |  | C=CCC[C@@H]1NC(=O)[C@H]2CCCN2C(=O)[C@H](Cc2ccccc2)NC(=O)C(C)(C)NC1=O [Compound 14] (cyclo([Aib]F[dP][Gly(But-3-enyl)])) |  |  |  |
